Assay results published in PMC10108266, “Pharmacokinetic characteristics of golidocitinib, a highly selective JAK1 inhibitor, in healthy adult participants” (Frontiers in Immunology, 2023).
Like-named read-outs stand apart in the source and are kept apart here.

Assays:
[1] = Clearance pathways (available data); format: in vivo, human
[2] = JACKPOT2 food effect cohort (50 mg, fasted vs high-fat meal); format: in vivo, human; conditions: for AUC0-inf, Geometric Mean Ratio (90% CI) (Test vs Reference) / AUC0-t, Geometric Mean Ratio (90% CI) (Test vs Reference) / Cmax, Geometric Mean Ratio (90% CI) (Test vs Reference) / AUC(0-inf) / AUC(0-t) / Cmax: 50 mg; for AUC0-inf, Geometric Mean Ratio (90% CI) (Test vs Reference) / AUC0-t, Geometric Mean Ratio (90% CI) (Test vs Reference) / Cmax, Geometric Mean Ratio (90% CI) (Test vs Reference): fed versus fasted, percent ratio of geometric least square means; for AUC(0-inf): read-out: AUC0-inf, Geometric mean (%CV); for AUC(0-t): read-out: AUC0-t, Geometric mean (%CV); for Cmax: read-out: Cmax, Geometric mean (%CV)
Description: A total of 42 and 24 healthy participants were enrolled in part A and part B, respectively. In part A, a total of 30 participants were randomized into 5 SAD cohorts (n = 6 per cohort) and received a single dose of golidocitinib at different dose levels or a matching placebo in a 4:2 ratio. In the food effect cohort, a total of 12 participants were enrolled and received the study drug under fasted or fed conditions, with a sequential design. The 50 mg dose was selected based on available safety data after the completion of the SAD cohorts, and also on the outcomes from PK/PD modeling for potential efficacious dose for autoimmune disease. On Day 1, participants took a single dose of golidocitinib under fast condition. After a 14-day wash-out period, on Day 15, participants received another single dose of golidocitinib immediately after a standard high-fat meal. Food recipes and contents are consistent with that described in FDA Guidance for Food-Effect Bioavailability studies ([10]). For the fed condition, keeping fasted for at least 10 hours, participants started ingestion of high-fat meal 30 minutes prior to administration of golidocitinib. They had to finish the meal within 30 minutes or less, and no food was allowed for at least 4 hours post-dose. In part B, a total of 24 participants were randomized into 3 MAD cohorts, with 8 in each cohort (active:placebo = 6:2). In these cohorts, participants received golidocitinib at different dose levels or placebo once daily dosing for 14 days. Dose escalation was based on available PK and safety data in the previous cohorts.
For food effect assessment, log-transformed PK parameters (AUC0-t, AUC0-inf, and Cmax) of golidocitinib were analyzed using a mixed-effect model including terms for study treatment (fasted and fed) as fixed effects, and participants nested within treatment as a random effect. The CIs on the ratios of untransformed PK parameters were derived through a reverse transformation of the 90% CIs for the differences of the means in the log scale from the mixed-effect model. Least-squares geometric means, a ratio of the geometric means and 90% CIs on the ratio of fed to fasted were presented.

[3] = set-up: method as in JACKPOT5, NCT04225208; conditions: concluded from metabolic profile in human, radiolabeled mass balance study in 8 healthy participants ref JACKPOT5, NCT04225208; cited from earlier work
[4] = Safety (TEAEs), JACKPOT2 MAD cohorts; format: in vivo, human; conditions: n = 6
Description: Safety assessments included monitoring of adverse events/serious adverse events, clinical safety laboratory tests (clinical chemistry, hematology, coagulation, and urinalysis tests), 12-lead ECG, vital signs (blood pressure, pulse rate, and respiratory rate), and pulmonary function. All adverse events were coded using the Medical Dictionary for Regulatory Activities (MedDRA), version 22.0. The CTCAE 5.0 was used to define the intensity of AEs.

[5] = human, plasma, oral, 50 mg single dose, Fasted (Reference), N = 12
[6] = human, plasma, oral, 50 mg single dose, High-fat meal (Test), N = 11

For COc1nn(C)cc1Nc1nccc(-c2c[nH]c3c(NC(=O)[C@@H](C)N4CCN(C)CC4)cccc23)n1 [golidocitinib, (2R)-N-[3-[2-[(3-Methoxy-1-methyl-pyrazol-4-yl)amino]pyrimidin-4-yl]-1H-indol-7-yl]-2-(4-methylpiperazin-1-yl)propenamide], the “hepatic clearance, share of clearance” value [1] was 70-80%, the “renal excretion, share of clearance” value [1] was 20-30% and the “tmax, Median (range)” value ([2]; 50 mg single dose, High-fat meal (Test), N = 11) was 6.00 (4.00, 14.0) hour. For the same molecule, the “AUC0-inf, Geometric Mean Ratio (90% CI) (Test vs Reference)” value [2] was 116.5 (111.2, 122.0) %, the “AUC0-t, Geometric Mean Ratio (90% CI) (Test vs Reference)” value [2] was 115.0 (109.3, 121.0) % and the “Cmax, Geometric Mean Ratio (90% CI) (Test vs Reference)” value [2] was 108.9 (97.81, 121.2) %. The “AUC0-inf, Geometric Mean Ratio (90% CI) (Test vs Reference)” value ([2]; listed as Golidocitinib) was 116.5 (111.2-122.0) %, the “AUC0-t, Geometric Mean Ratio (90% CI) (Test vs Reference)” value ([2]; listed as Golidocitinib) was 115.0 (109.3-121.0) % and the “Cmax, Geometric Mean Ratio (90% CI) (Test vs Reference)” value ([2]; listed as Golidocitinib) was 108.9 (97.81-121.2) %. It also gave an AUC(0-inf) [2, 5] of 2960 ng·h/mL, an AUC(0-t) [2, 5] of 2770 ng·h/mL and a Cmax [2, 5] of 68.8 ng/mL. For the same molecule, the AUC(0-inf) [2, 6] was 3400 ng·h/mL, the AUC(0-t) [2, 6] was 3230 ng·h/mL and the Cmax [2, 6] was 73.7 ng/mL. The Tmax ([2]; human, plasma, oral, 50 mg single dose, Fasted (Reference), N = 12, read-out: tmax, Median (range)) was 6 h, the oral bioavailability [3] was greater than 80% and the Abdominal pain upper ([4]; 25 mg once daily 14 days) was 0 n (%). For the same molecule, the “Blood and Lymphatic Disorders” value ([4]; 25 mg once daily 14 days) was 1 (16.7%) n (%), the Constipation ([4]; 25 mg once daily 14 days) was 1 (16.7%) n (%) and the Dry throat ([4]; 25 mg once daily 14 days) was 0 n (%). The “Gastrointestinal disorders” value ([4]; 25 mg once daily 14 days) was 1 (16.7%) n (%), the Headache ([4]; 25 mg once daily 14 days) was 0 n (%) and the “Injury, poisoning and procedural complications” value ([4]; 25 mg once daily 14 days) was 0 n (%). The Leukopenia ([4]; 25 mg once daily 14 days) was 0 n (%), the Nausea ([4]; 25 mg once daily 14 days) was 0 n (%) and the “Nervous System Disorders” value ([4]; 25 mg once daily 14 days) was 0 n (%). The Neutropenia ([4]; 25 mg once daily 14 days) was 1 (16.7%) n (%), the “Respiratory, Thoracic and Mediastinal Disorders” value ([4]; 25 mg once daily 14 days) was 0 n (%) and the Reticulocytopenia ([4]; 25 mg once daily 14 days) was 0 n (%). For the same molecule, the “Skin Laceration” value ([4]; 25 mg once daily 14 days) was 0 n (%), the “Subjects with at least one TEAE” value ([4]; 25 mg once daily 14 days) was 2 (33.3%) n (%) and the Abdominal pain upper ([4]; 50 mg once daily 14 days) was 1 (16.7%) n (%). For the same molecule, the “Blood and Lymphatic Disorders” value ([4]; 50 mg once daily 14 days) was 0 n (%), the Constipation ([4]; 50 mg once daily 14 days) was 1 (16.7%) n (%) and the Dry throat ([4]; 50 mg once daily 14 days) was 0 n (%). The “Gastrointestinal disorders” value ([4]; 50 mg once daily 14 days) was 1 (16.7%) n (%), the Headache ([4]; 50 mg once daily 14 days) was 1 (16.7%) n (%) and the “Injury, poisoning and procedural complications” value ([4]; 50 mg once daily 14 days) was 0 n (%). The Leukopenia ([4]; 50 mg once daily 14 days) was 0 n (%), the Nausea ([4]; 50 mg once daily 14 days) was 1 (16.7%) n (%) and the “Nervous System Disorders” value ([4]; 50 mg once daily 14 days) was 1 (16.7%) n (%). For the same molecule, the Neutropenia ([4]; 50 mg once daily 14 days) was 0 n (%), the “Respiratory, Thoracic and Mediastinal Disorders” value ([4]; 50 mg once daily 14 days) was 0 n (%) and the Reticulocytopenia ([4]; 50 mg once daily 14 days) was 0 n (%). For the same molecule, the “Skin Laceration” value ([4]; 50 mg once daily 14 days) was 0 n (%), the “Subjects with at least one TEAE” value ([4]; 50 mg once daily 14 days) was 1 (16.7%) n (%) and the Abdominal pain upper ([4]; 100 mg once daily 14 days) was 0 n (%). The “Blood and Lymphatic Disorders” value ([4]; 100 mg once daily 14 days) was 3 (50.0%) n (%), the Constipation ([4]; 100 mg once daily 14 days) was 0 n (%) and the Dry throat ([4]; 100 mg once daily 14 days) was 0 n (%). The “Gastrointestinal disorders” value ([4]; 100 mg once daily 14 days) was 0 n (%), the Headache ([4]; 100 mg once daily 14 days) was 1 (16.7%) n (%) and the “Injury, poisoning and procedural complications” value ([4]; 100 mg once daily 14 days) was 0 n (%). The Leukopenia ([4]; 100 mg once daily 14 days) was 2 (33.3%) n (%), the Nausea ([4]; 100 mg once daily 14 days) was 0 n (%) and the “Nervous System Disorders” value ([4]; 100 mg once daily 14 days) was 1 (16.7%) n (%). The Neutropenia ([4]; 100 mg once daily 14 days) was 3 (50.0%) n (%), the “Respiratory, Thoracic and Mediastinal Disorders” value ([4]; 100 mg once daily 14 days) was 0 n (%) and the Reticulocytopenia ([4]; 100 mg once daily 14 days) was 1 (16.7%) n (%). For the same molecule, the “Skin Laceration” value ([4]; 100 mg once daily 14 days) was 0 n (%) and the “Subjects with at least one TEAE” value ([4]; 100 mg once daily 14 days) was 3 (50.0%) n (%).
